Results taken from patent US6653300B2, “Pyrazole compounds useful as protein kinase inhibitors” (Vertex Pharmaceuticals Incorporated, priority 2000, dated 2003).

Key:
Format in all cases: biochemical
[1] = biological target: T1, GSK-3β (AA 1-420) (Homo sapiens, UniProt P49841); experiment: Ki determination for the inhibition of GSK-3 (coupled enzyme system); conditions: 20 μM ATP, 20 nM GSK-3β, 30° C.
T1 construct: GSK-3β (AA 1-420)
Method in brief: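 GSK-3β (AA 1-420, 20 nM) was run in a pyruvate kinase/LDH-coupled NADH assay in 100 mM HEPES pH 7.5, 10 mM MgCl2, 25 mM NaCl, 1 mM DTT, 1.5% DMSO, with 300 μM phosphopeptide substrate. Compound (0.002–30 μM) was preincubated 10 min at 30° C, then 20 μM ATP was added.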

[2] = biological target: activated ERK2 (Homo sapiens, UniProt P28482); experiment: ERK inhibition assay (spectrophotometric coupled-enzyme assay); conditions: 10 nM activated ERK2, 65 μM ATP, 30° C.; read-out: Ki values for ERK-2
Sequence of activated ERK2 (P28482 whole entry): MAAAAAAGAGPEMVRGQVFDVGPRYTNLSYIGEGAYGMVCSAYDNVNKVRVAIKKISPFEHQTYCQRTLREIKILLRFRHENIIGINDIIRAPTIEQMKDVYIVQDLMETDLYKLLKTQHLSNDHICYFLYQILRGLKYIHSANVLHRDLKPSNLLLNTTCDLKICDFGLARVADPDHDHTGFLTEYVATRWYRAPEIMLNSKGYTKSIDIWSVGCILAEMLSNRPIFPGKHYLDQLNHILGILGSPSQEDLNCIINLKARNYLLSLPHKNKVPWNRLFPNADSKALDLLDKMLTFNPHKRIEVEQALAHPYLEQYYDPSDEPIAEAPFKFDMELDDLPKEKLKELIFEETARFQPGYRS
Experimental: Compounds were assayed for the inhibition of ERK2 by a spectrophotometric coupled-enzyme assay (Fox et al (1998) Protein Sci 7, 2249).

[3] = biological target: CDK-2/Cyclin A (Homo sapiens, UniProt P24941); experiment: CDK-2 inhibition assay (coupled enzyme assay); conditions: 25 nM CDK-2/Cyclin A, 30° C.
Experimental: Compounds were screened in the following manner for their ability to inhibit CDK-2 using a standard coupled enzyme assay (Fox et al (1998) Protein Sci 7, 2249).
To an assay stock buffer solution containing 0.1M HEPES 7.5, 10 mM MgCl2, 1 mM DTT, 25 mM NaCl, 2.5 mM phosphoenolpyruvate, […], 30 mg/ml pyruvate kinase, 10 mg/ml lactate dehydrogenase, 100 mM ATP, and 100 μM peptide ([…], American Peptide, Sunnyvale, Calif.) was added a DMSO solution of a compound of the present invention to a final concentration of 30 μM. The resulting mixture was incubated at 30° C. for 10 min.
The reaction was initiated by the addition of 10 μL of CDK-2/Cyclin A stock solution to give a final concentration of 25 nM in the assay. The rates of reaction were obtained by monitoring absorbance at 340 nm over a 5-minute read time at 30° C. using a BioRad Ultramark plate reader (Hercules, Calif.). The Ki values were determined from the rate data as a function of inhibitor concentration.

T1 sequence (P49841 whole entry, the tested form may be a part): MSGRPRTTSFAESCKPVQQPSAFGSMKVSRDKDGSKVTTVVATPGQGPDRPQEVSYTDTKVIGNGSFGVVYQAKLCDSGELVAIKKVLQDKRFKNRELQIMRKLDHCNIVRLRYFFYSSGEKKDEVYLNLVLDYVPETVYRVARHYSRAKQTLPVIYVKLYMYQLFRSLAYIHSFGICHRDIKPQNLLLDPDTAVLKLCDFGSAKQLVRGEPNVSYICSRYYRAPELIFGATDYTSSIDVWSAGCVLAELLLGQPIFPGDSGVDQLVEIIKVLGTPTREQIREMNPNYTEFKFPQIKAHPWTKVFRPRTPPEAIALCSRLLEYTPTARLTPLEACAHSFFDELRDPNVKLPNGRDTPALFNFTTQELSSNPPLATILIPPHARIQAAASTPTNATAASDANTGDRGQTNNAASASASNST

For `c1ccc2c(Nc3cc(C4CC4)[nH]n3)nc(Nc3ccc4ncsc4c3)nc2c1` [IIc-32, [2-(Benzothiazol-6-ylamino)-quinazolin-4-yl]-(5-cyclopropyl-2H-pyrazol-3-yl)-amine], the Ki [1] was under 100 nM, the Ki [2] was under 1000 nM and the Ki [3] was under 1000 nM.
